Test system: advanced solid tumors
Assay: Antitumor activity, tumor response per RECIST 1.1 and PFS
Type: in vivo, patients
Description: This study was a single‐arm, dose‐escalation phase I trial conducted in Sun Yat‐sen University Cancer Center in China. This study assessed CVL218 in patients with histologically or cytologically confirmed advanced solid tumors who were in PD after standard therapeutic regimens or lacked standard treatment options. Inclusion criteria included: age 18–75 years; with at least one measurable and evaluable target lesion per Response Evaluation Criteria in Solid Tumors 1.1 (RECIST 1.1); ECOG performance status of 0 or 1; adequate hematological, renal, cardiac, and hepatic functions and a life expectancy ≥12 weeks. Key exclusion criteria included prior usage of PARP inhibitors; allergic to the research drug or its components; with active, unstable systemic diseases or active, uncontrolled infection; a history of other malignancies within 5 years, and pregnant or lactating women.
Single‐dose and multiple‐dose PK parameters included C max, T max, elimination half‐life (T 1/2), AUC0– t , AUC0–inf, oral clearance (CL/F), and apparent volume of distribution (V z/F) for CVL218. Tumor response was assessed per RECIST 1.1. ORR was defined as proportion of patients with a CR or PR on at least one visit, while DCR was defined as proportion of patients with a CR or PR or SD. PFS was defined as the time from the first dose of either drug to investigator assessed radiologic PD or to death of any cause. PFS would be censored at the time of last tumor assessment.
Subjects who received at least one dose of CVL218 with postadministration safety records were included in safety analysis set. Subjects who received at least one dose of CVL218 with at least one evaluable PK parameter were included in PK analysis set. Per‐protocol set were used for efficacy analysis. Descriptive statistics of safety were presented per CTCAE v5.0. The PK parameters T max and T 1/2 were shown as the median (min, max) and mean ± SD, respectively. A two‐sided p < 0.05 was considered to indicate statistical significance. Statistical analysis was performed by using GraphPad prism 8.0.2 and R‐4.3.3.

`CNCc1ccc(-c2cc3cc(F)cc(C(N)=O)c3o2)cc1.Cl` [CVL218] was tested, and the “BOR, CR” value (50 mg BID (N = 1)) was 0 n (%), the “BOR, PD” value (50 mg BID (N = 1)) was 1 (100) n (%) and the “BOR, PR” value (50 mg BID (N = 1)) was 0 n (%). For the same compound, the DCR (50 mg BID (N = 1)) was 0 (0, 97.50) n (%) (95%CI), the ORR (50 mg BID (N = 1)) was 0 (0, 97.5) n (%) (95%CI) and the mPFS (50 mg BID (N = 1)) was 1.05 months. The “BOR, CR” value (100 mg BID (N = 1)) was 0 n (%), the “BOR, PD” value (100 mg BID (N = 1)) was 1 (100) n (%) and the “BOR, PR” value (100 mg BID (N = 1)) was 0 n (%). The DCR (100 mg BID (N = 1)) was 0 (0, 97.50) n (%) (95%CI), the ORR (100 mg BID (N = 1)) was 0 (0, 97.5) n (%) (95%CI) and the mPFS (100 mg BID (N = 1)) was 1.05 months. For the same compound, the “BOR, CR” value (200 mg BID (N = 1)) was 0 n (%), the “BOR, PD” value (200 mg BID (N = 1)) was 0 n (%) and the “BOR, PR” value (200 mg BID (N = 1)) was 0 n (%). For the same compound, the DCR (200 mg BID (N = 1)) was 1 (100) (2.5, 100.0) n (%) (95%CI), the ORR (200 mg BID (N = 1)) was 0 (0, 97.5) n (%) (95%CI) and the mPFS (200 mg BID (N = 1)) was 1.97 months. The “BOR, CR” value (350 mg BID (N = 4)) was 0 n (%), the “BOR, PD” value (350 mg BID (N = 4)) was 1 (25.0) n (%) and the “BOR, PR” value (350 mg BID (N = 4)) was 0 n (%). For the same compound, the DCR (350 mg BID (N = 4)) was 3 (75.0) (19.4, 99.4) n (%) (95%CI), the ORR (350 mg BID (N = 4)) was 0 (0, 60.2) n (%) (95%CI) and the mPFS (350 mg BID (N = 4)) was 2.34 months. For the same compound, the “BOR, CR” value (500 mg BID (N = 4)) was 0 n (%), the “BOR, PD” value (500 mg BID (N = 4)) was 1 (25.0) n (%) and the “BOR, PR” value (500 mg BID (N = 4)) was 0 n (%). The DCR (500 mg BID (N = 4)) was 3 (75.0) (19.4, 99.4) n (%) (95%CI), the ORR (500 mg BID (N = 4)) was 0 (0, 60.2) n (%) (95%CI) and the mPFS (500 mg BID (N = 4)) was 3.27 months. For the same compound, the “BOR, CR” value (600 mg BID (N = 3)) was 0 n (%), the “BOR, PD” value (600 mg BID (N = 3)) was 3 (100) n (%) and the “BOR, PR” value (600 mg BID (N = 3)) was 0 n (%). For the same compound, the DCR (600 mg BID (N = 3)) was 0 (0, 70.8) n (%) (95%CI), the ORR (600 mg BID (N = 3)) was 0 (0, 70.8) n (%) (95%CI) and the mPFS (600 mg BID (N = 3)) was 1.02 months. For the same compound, the “BOR, CR” value (700 mg BID (N = 6)) was 0 n (%), the “BOR, PD” value (700 mg BID (N = 6)) was 0 n (%) and the “BOR, PR” value (700 mg BID (N = 6)) was 0 n (%). For the same compound, the DCR (700 mg BID (N = 6)) was 6 (100) (54.1, 100.0) n (%) (95%CI), the ORR (700 mg BID (N = 6)) was 0 (0, 45.9) n (%) (95%CI) and the mPFS (700 mg BID (N = 6)) was 2.27 months. For the same compound, the “BOR, CR” value (850 mg BID (N = 4)) was 0 n (%), the “BOR, PD” value (850 mg BID (N = 4)) was 0 n (%) and the “BOR, PR” value (850 mg BID (N = 4)) was 0 n (%). The DCR (850 mg BID (N = 4)) was 4 (100) (39.8, 100.0) n (%) (95%CI), the ORR (850 mg BID (N = 4)) was 0 (0, 60.2) n (%) (95%CI) and the mPFS (850 mg BID (N = 4)) was 2.35 months. The mPFS (7 breast cancer patients) was 1.71 months, the mPFS (7 patients whose best overall response was PD) was 1.05 months and the mPFS (10 patients on high-level doses (≥700 mg BID)) was 2.35 months. For the same compound, the mPFS (14 patients on low-level doses (<700 mg BID)) was 1.80 months, the mPFS (17 patients with SD) was 2.79 months and the “complete response (CR) or partial response (PR)” value (24 subjects of efficacy analysis set) was “none of them achieved complete response (CR) or partial response (PR)”. For the same compound, the “BOR, CR” value (Breast cancer (N=7)) was 0 n (%), the “BOR, PD” value (Breast cancer (N=7)) was 2 (28.6) n (%) and the “BOR, PR” value (Breast cancer (N=7)) was 0 n (%). The DCR (Breast cancer (N=7)) was 71.4 (29.0, 96.3) n (%) (95%CI), the ORR (Breast cancer (N=7)) was 0 (0, 41.0) n (%) (95%CI) and the mPFS (Breast cancer (N=7)) was 1.71 months. The “BOR, CR” value (Lung cancer (N=10)) was 0 n (%), the “BOR, PD” value (Lung cancer (N=10)) was 4 (40.0) n (%) and the “BOR, PR” value (Lung cancer (N=10)) was 0 n (%). The ORR (Lung cancer (N=10)) was 0 (0, 30.9) n (%) (95%CI), the mPFS (Lung cancer (N=10)) was 2.12 months and the “BOR, CR” value (Other types (N=7)) was 0 n (%). For the same compound, the “BOR, PD” value (Other types (N=7)) was 1 (14.3) n (%), the “BOR, PR” value (Other types (N=7)) was 0 n (%) and the DCR (Other types (N=7)) was 85.7 (42.1, 99.6) n (%) (95%CI). The ORR (Other types (N=7)) was 0 (0, 41) n (%) (95%CI), the mPFS (Other types (N=7)) was 1.91 months and the “BOR, CR” value (Overall (N = 24)) was 0 n (%). For the same compound, the “BOR, PD” value (Overall (N = 24)) was 7 (29.2) n (%), the “BOR, PR” value (Overall (N = 24)) was 0 n (%) and the DCR (Overall (N = 24)) was 17 (70.8) (48.9, 87.4) n (%) (95%CI). The ORR (Overall (N = 24)) was 0 (0, 14.3) n (%) (95%CI), the mPFS (Overall (N = 24)) was 1.89 months and the “median PFS (mPFS)” value (all subjects, PFS events in 24 patients) was 1.89 months. The DCR (breast cancer) was 71.4%, the “disease control rate (DCR)” value (high-level doses (≥700 mg BID, n = 10)) was 100% and the “disease control rate (DCR)” value (low-level dose group (<700 mg BID, n = 14)) was 50%. For the same compound, the DCR (lung cancer) was 60%, the DCR (other cancers) was 85.7% and the “disease control rate (DCR)” value (overall, 24 patients) was 70.8%. The mPFS (patients with lung cancer) was 2.12 months, the “disease control rate (DCR)” value (recommended dose (700 mg BID, n = 6)) was 100% and the mPFS (seven patients with other cancer types) was 1.91 months.

From publication PMC12238723, “Phase I Clinical Trial of CVL218, a Novel PARP1/2 Inhibitor, in Patients with Advanced Solid Tumors” (MedComm, 2025)
